Data: US12582632B2, “Inhibition of neurological injuries due to infections via administration of Butanetap and analogs thereof” (priority 2021, dated 2026)

Tests used:
[1] = system: fully differentiated Down syndrome nerve cells; experiment: Vesicle transport in Down syndrome nerve cells; format: cell-based
Description: Butanetap's reversal of the neurotoxic cascade: Butanetap's mechanism of action is related to APP, Tau, and aSYN expression being regulated by RP1 and by iron and the way these proteins contribute to neurodegeneration by accumulating as toxic aggregates that impair axonal transport and synaptic transmission, causing inflammation, and, finally, leading to nerve cell death (as described previously).

APP or aSYN mRNA to IRP1 = APP or aSYN mRNA to IRP1 (Homo sapiens, UniProt P21399); experiment: Binding of mRNA IRE to IRP1
Sequence of APP or aSYN mRNA to IRP1 (P21399 whole entry): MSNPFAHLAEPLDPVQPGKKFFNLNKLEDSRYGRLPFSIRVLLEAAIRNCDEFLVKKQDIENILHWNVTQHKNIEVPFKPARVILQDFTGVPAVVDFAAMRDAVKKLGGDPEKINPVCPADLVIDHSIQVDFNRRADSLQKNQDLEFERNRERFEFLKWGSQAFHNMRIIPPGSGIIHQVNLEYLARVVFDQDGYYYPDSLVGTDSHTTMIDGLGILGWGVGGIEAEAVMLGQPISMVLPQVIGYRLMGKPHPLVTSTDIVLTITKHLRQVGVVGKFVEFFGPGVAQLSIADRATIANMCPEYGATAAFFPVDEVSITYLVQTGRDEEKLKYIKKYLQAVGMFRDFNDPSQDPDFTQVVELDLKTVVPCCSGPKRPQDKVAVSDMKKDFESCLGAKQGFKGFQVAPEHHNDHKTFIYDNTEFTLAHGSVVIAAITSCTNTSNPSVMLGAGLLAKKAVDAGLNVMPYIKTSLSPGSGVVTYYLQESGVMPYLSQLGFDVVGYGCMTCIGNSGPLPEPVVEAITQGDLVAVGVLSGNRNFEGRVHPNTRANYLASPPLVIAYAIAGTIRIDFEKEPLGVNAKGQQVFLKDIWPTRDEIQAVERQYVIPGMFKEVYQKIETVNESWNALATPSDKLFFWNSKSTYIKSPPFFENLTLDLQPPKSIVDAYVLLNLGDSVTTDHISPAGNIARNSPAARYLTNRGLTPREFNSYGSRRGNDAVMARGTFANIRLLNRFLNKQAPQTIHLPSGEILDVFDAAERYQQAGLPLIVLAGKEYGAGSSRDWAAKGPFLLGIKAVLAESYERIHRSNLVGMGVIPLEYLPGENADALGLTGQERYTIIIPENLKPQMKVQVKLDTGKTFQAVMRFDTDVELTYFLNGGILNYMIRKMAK
Description: Therefore, the original data concerning the effects of butanetap working under all conditions is wrong. (See, e.g., Lahiri, et al., “The Experimental Alzheimer's Disease Drug butanetap [(+)-Phenserine] Lowers Amyloid-β Peptide Levels in Cell Culture and Mice”, J. Pharmacol. Ther. 320:386-396, 2007 (hereby incorporated by reference)). It only works in stressed cells, dividing cells and sick cells, e.g., those cells that have high levels of iron.
Butanetap augments the binding of APP mRNA IRE to IRP1 under high iron conditions and prevents APP from being translated excessively, restoring homeostasis. The same mechanism works for all neurotoxic aggregating proteins tested to date: Butanetap works under iron-dishomeostasis to restore homeostasis.

[2] = system: aSYN in SH-SY-5Y human neuroblastoma cells; experiment: alpha-synuclein in vitro, Western blot; format: cell-based; conditions: 0, 0.1, 1, 5 and 10 μM, FIG. 5
Protocol: • A. FIG. 5, alpha-synuclein in vitro. […] On the left is a Western blot showing butanetap inhibition of aSYN in relation to Actin standard at concentrations of 0, 0.1, 1, 5 and 10 μM and on the right a graph showing the same data plotted for statistical analysis purposes. • B. FIG. 6, alpha-synuclein brain in vivo. […] The animals were only treated for 2 weeks, so in brain it takes butanetap only 2 weeks to lower levels of alpha-synuclein. • C. FIG. 7, alpha-synuclein in gut in vivo. Gut levels of aSYN following treatment of PD A53T mice with 10 mg/kg for 21 weeks and 21 days reduced αSYN levels in the gut as shown by Western Blot.

[3] = Plasma and brain levels in humans, calculated and extrapolated from mice data
Description: (§1) The doses are provided in mg/kg; mg dose for a 70 kg human; plasma levels in mice and humans (ng/ml); plasma levels in humans (nM); brain levels in mice and humans (ng/gram); oral human efficacious and safe dose (mg/day); IP/P human efficacious and safe dose (mg/day); and IV human efficacious and safe dose (mg/day).

[4] = system: neurotoxic aggregating proteins in stem cells (dividing cells); experiment: Neurotoxic aggregating proteins in stem cells and derived neurons; format: cell-based
[5] = system: APP, Tau, αSYN and inflammatory markers in CSF; conditions: MCI subjects, cited from earlier work
[6] = system: immortalized neuroblastoma (SH-SY5Y) cells; experiment: Gingipain cytotoxicity on neuroblastoma cells, AlamarBlue viability; format: cell-based; conditions: 48 hours, between 1 and 10 nM
Protocol: Immortalized Mouse Astrocytes—SV40T (IMA2.1), immortalized Mouse Microglia (SIM-A9) and immortalized neuroblastoma (SH-SY5Y) cells were infected for 48 hours with gingipains HRgpA and RgpB (arginine gingipains), and Kgp (lysine-specific cysteine proteinase—Lys-gingipain, KGP). After 48 hours the cells were assessed for viability with the AlamarBlue assay and the percentage of dead or alive cells versus control was plotted. […] As expected, since neither are dying, […]. […] Therefore, we expect the efficacious buntanetap dose to fight P. gingivalis infection to be the same as to treat Alzheimer's and Parkinson's disease has no impact on the microglia or neuroblastoma survival in the presence of gingipains.

[7] = Plasma and brain levels in mice by dose; format: in vivo
Description: as §1

[8] = dose 0.014 mg/kg, 1.0 mg for 70 kg
[9] = dose 0.07 mg/kg, 4.9 mg for 70 kg
[10] = dose 0.143 mg/kg, 10.0 mg for 70 kg
[11] = dose 0.16 mg/kg, 11.2 mg for 70 kg
[12] = dose 0.21 mg/kg, 14.7 mg for 70 kg
[13] = dose 0.23 mg/kg, 16.1 mg for 70 kg
[14] = dose 0.29 mg/kg, 20.3 mg for 70 kg
[15] = dose 0.34 mg/kg, 23.8 mg for 70 kg
[16] = dose 0.57 mg/kg, 39.9 mg for 70 kg
[17] = dose 1 mg/kg, 70.0 mg for 70 kg
[18] = dose 1.14 mg/kg, 79.8 mg for 70 kg
[19] = dose 1.71 mg/kg, 119.7 mg for 70 kg
[20] = dose 2.13 mg/kg, 149.1 mg for 70 kg
[21] = dose 2.29 mg/kg, 160.3 mg for 70 kg

For CN1CC[C@]2(C)c3cc(OC(=O)Nc4ccccc4)ccc3N(C)C12 (stereo partly drawn) [butanetap, (3aR)-1,3a,8-trimethyl-1,2,3,3a,8,8a-hexahydropyrrolo[2,3-b]indol-5-yl phenylcarbamate], the “anterograde and retrograde vesicle transport” value [1] was “Normalized”, the “binding of APP mRNA IRE to IRP1” value (APP or aSYN mRNA to IRP1; under high iron conditions) was “augments” and the “binding of APP or aSYN mRNA to IRP1” value (APP or aSYN mRNA to IRP1; under iron or metal-homeostasis) was “does not increase”. The “aSYN in relation to Actin standard” value [2] was “lowers aSYN in vitro in a dose-dependent manner”, the “Brain levels in humans” value [3, 8] was 8 ng/gram and the “Plasma levels in human” value [3, 8] was 1 ng/mL. For the same molecule, the “Plasma levels in humans” value [3, 8] was 3 nM, the “Brain levels in humans” value [3, 9] was 16 ng/gram and the “Plasma levels in human” value [3, 9] was 2 ng/mL. The “Plasma levels in humans” value [3, 9] was 6 nM, the “Brain levels in humans” value [3, 10] was 29.6 ng/gram and the “Plasma levels in human” value [3, 10] was 3.7 ng/mL. The “Plasma levels in humans” value [3, 10] was 10 nM, the “Brain levels in humans” value [3, 11] was 45.6 ng/gram and the “Plasma levels in human” value [3, 11] was 5.7 ng/mL. The “Plasma levels in humans” value [3, 11] was 17 nM, the “Brain levels in humans” value [3, 12] was 92 ng/gram and the “Plasma levels in human” value [3, 12] was 11.5 ng/mL. For the same molecule, the “Plasma levels in humans” value [3, 12] was 32 nM, the “Brain levels in humans” value [3, 13] was 103.2 ng/gram and the “Plasma levels in human” value [3, 13] was 12.9 ng/mL. The “Plasma levels in humans” value [3, 13] was 38 nM, the “Brain levels in humans” value [3, 14] was 112 ng/gram and the “Plasma levels in human” value [3, 14] was 14 ng/mL. The “Plasma levels in humans” value [3, 14] was 41 nM, the “Brain levels in humans” value [3, 15] was 160 ng/gram and the “Plasma levels in human” value [3, 15] was 20 ng/mL. The “Plasma levels in humans” value [3, 15] was 58 nM, the “Brain levels in humans” value [3, 16] was 336 ng/gram and the “Plasma levels in human” value [3, 16] was 42 ng/mL. The “Plasma levels in humans” value [3, 16] was 123 nM, the “Brain levels in humans” value [3, 17] was 720 ng/gram and the “Plasma levels in human” value [3, 17] was 90 ng/mL. For the same molecule, the “Plasma levels in humans” value [3, 17] was 264 nM, the “Brain levels in humans” value [3, 18] was 960 ng/gram and the “Plasma levels in human” value [3, 18] was 120 ng/mL. For the same molecule, the “Plasma levels in humans” value [3, 18] was 352 nM, the “Brain levels in humans” value [3, 19] was 1600 ng/gram and the “Plasma levels in human” value [3, 19] was 200 ng/mL. The “Brain levels in humans” value [3, 20] was 1920 ng/gram, the “Plasma levels in human” value [3, 20] was 240 ng/mL and the “Brain levels in humans” value [3, 21] was 3040 ng/gram. For the same molecule, the “Plasma levels in human” value [3, 21] was 380 ng/mL, the neurotoxic aggregating proteins ([4]; differentiated neurons derived from the stem cells) was “not in the differentiated neurons” and the neurotoxic aggregating proteins ([4]; stem cells (dividing cells)) was “inhibits”. For the same molecule, the “levels of APP, Tau, and αSYN in the cerebrospinal fluid (CSF)” value ([5]; 4×60 mg/day) was “normalized”, the “CSF Aβ42” value [5] was “trend to lower” and the “CSF levels of p-tau” value [5] was “significantly lowered”. For the same molecule, the “CSF levels of sAPPα” value [5] was “significantly lowered”, the “CSF levels of sAPPβ” value [5] was “significantly lowered” and the “CSF levels of specific inflammatory markers” value [5] was “significantly lowered”. For the same molecule, the “CSF levels of t-tau” value [5] was “significantly lowered”, the “half-life in CSF” value [5] was over 12 h and the “neuroblastoma survival in the presence of gingipains” value [6] was “no impact”. For the same molecule, the “Brain levels in mice” value ([7]; dose 0.014 mg/kg) was 0 ng/gram, the “Brain levels in mice” value ([7]; dose 0.07 mg/kg) was 0 ng/gram and the “Brain levels in mice” value ([7]; dose 0.143 mg/kg) was 0 ng/gram. The “Brain levels in mice” value ([7]; dose 0.16 mg/kg) was 0 ng/gram, the “Brain levels in mice” value ([7]; dose 0.21 mg/kg) was 0 ng/gram and the “Brain levels in mice” value ([7]; dose 0.23 mg/kg) was 0 ng/gram. The “Brain levels in mice” value ([7]; dose 0.29 mg/kg) was 0 ng/gram, the “Brain levels in mice” value ([7]; dose 0.34 mg/kg) was 0 ng/gram and the “Brain levels in mice” value ([7]; dose 0.57 mg/kg) was 0 ng/gram. The “Brain levels in mice” value ([7]; dose 1 mg/kg) was 16 ng/gram, the “Brain levels in mice” value ([7]; dose 1.14 mg/kg) was 16.8 ng/gram and the “Brain levels in mice” value ([7]; dose 1.71 mg/kg) was 0 ng/gram. For the same molecule, the “Brain levels in mice” value ([7]; dose 2.13 mg/kg) was 31.2 ng/gram, the “Brain levels in mice” value ([7]; dose 2.29 mg/kg) was 0 ng/gram and the “Brain levels in mice” value ([7]; dose 3 mg/kg) was 48 ng/gram. For the same molecule, the “Brain levels in mice” value ([7]; dose 5 mg/kg) was 80 ng/gram, the “Brain levels in mice” value ([7]; dose 10 mg/kg) was 160 ng/gram and the “Brain levels in mice” value ([7]; dose 20 mg/kg) was 400 ng/gram. For the same molecule, the “Brain levels in mice” value ([7]; dose 30 mg/kg) was 800 ng/gram, the “Brain levels in mice” value ([7]; dose 40 mg/kg) was 1200 ng/gram and the “Brain levels in mice” value ([7]; dose 50 mg/kg) was 1680 ng/gram. For the same molecule, the “Brain levels in mice” value ([7]; dose 60 mg/kg) was 2400 ng/gram, the “Brain levels in mice” value ([7]; dose 80 mg/kg) was 4800 ng/gram and the “Brain levels in mice” value ([7]; dose 100 mg/kg) was 8000 ng/gram.
